Laboratory results as given in patent US9486506B2 (Novo Nordisk A/S, priority 2011, dated 2016).
Numbered stars: 1 amine (or outer) side, 2 acyl side, 3 side chain; on linkers, the order of the positions; unused ones are H or OH. Side chains are listed from the residue outwards. Peptide text beside a SMILES is read from it. * marks the point of attachment. C18 diacid = O=C(O)CCCCCCCCCCCCCCCCC(=O)*; γGlu = O=C(O)[C@H](CCC(=O)[*:2])N[*:1]; AEEA = NCCOCCOCC(=O)O

Key:
[1] = Assay (XI) Pharmacokinetic study in minipigs; format: in vivo, Göttingen minipigs; settings: i.v. administration, terminal half-life; for half-life: both sexes, Göttingen, minipig, plasma, iv, read-out: iv PK minipig [T½] (converted)
Protocol: Buffer: • 50 mM Dinatriumphosphatdihydrat • 184 mM Propylenglycol • 58 mM Phenol • pH adjusted to 8.15 with H3PO4. In cases where pH was adjusted to 8.15 after re-suspension of analogues, 0.2 M NaOH was used. Assay (XI) Pharmacokinetic Study in Minipigs
This is done in a pharmacokinetic (PK) study, whereamong other parameters the terminal half-life and the clearance of the derivative in question is determined. Increasing the terminal half-life and decreasing the clearance means that the compound of study is eliminated slower from the body.
Male or female Göttingen minipigs were obtained from Ellegaard Göttingen Minipigs (Dalmose, Denmark) approximately 7-14 months of age and weighing from approximately 16-35 kg were used in the studies. The minipigs were housed either individually (pigs with permanent catheters) or in a group and fed restrictedly once or twice daily with SDS minipig diet (Special Diets Services, Essex, UK). In some studies two permanent central venous catheters were implanted in vena cava caudalis or cranialis in each animal after at least 2 weeks of acclimatisation. […] On each dosing occasion these pigs were instrumented with a venflon in one ear vein through which the derivatives were dosed. Blood sampling was done by venipuncture in v. jugularis or v. cava cranialis
The animals were either unfasted or fasted for approximately 18 h before dosing and from 0 to 4 h after dosing, but had ad libitum access to water during the whole period.
Intravenous injections (the volume corresponding to usually 2-3 nmol/kg, for example 0.1 ml/kg) of the compounds were given through one catheter or through the venflon, and blood was sampled at predefined time points for up till 13 days post dosing (preferably through the other catheter or by venipuncture). Blood samples (for example 0.8 ml) were collected in tubes with EDTA buffer (8 mM) (sometimes aprotinin 500 KIU/ml blood was added) and then centrifuged at 4° C. and 1942 G for 10 minutes. […] Based on these measurements, time-plasma concentration profiles for the compound of study are plotted and a so-called non-compartmental pharmacokinetic analysis of the data is performed in WinNonlin v. 5.0 or Phoenix v. 6.2 (Pharsight Inc., Mountain View, Calif., USA) or other relevant software for PK analysis. For most compounds, the terminal part of the plasma-concentration profiles will be linear when drawn in a semi-logarithmic plot, reflecting that after the initial distribution, drug is removed from the body at a constant fractional rate. The rate (lambda Z or is equal to minus the slope of the terminal part of the plot. From this rate, also the terminal half-life may be calculated, as t½=ln(2)/λz (see, e.g., Johan Gabrielsson and Daniel Weiner: Pharmacokinetics and Pharmacodynamic Data Analysis. Concepts & Applications, 3rd Ed., Swedish Pharmaceutical Press, Stockholm (2000)).
Clearance is defined as the dose (D) divided by area under the curve (AUC) on the plasmaconcentration versus time profile (Rowland, M and Tozer T N: Clinical Pharmacokinetics: Concepts and Applications, 3rd edition, 1995 Williams Wilkins)

[2] = target: T1, glucagon receptor (Homo sapiens, UniProt P47871); assay: Assay (I) Glucagon activity (cAMP biosensor, FLIPR); format: cell-based
T1 construct: expressed in transfected cells

[3] = Assay (X) Chemical stability assessment by RP-UPLC; format: physicochemical; settings: pH 8.15, 14 days at 37° C. vs 5° C., 333 μM

T1 sequence (P47871 26-477): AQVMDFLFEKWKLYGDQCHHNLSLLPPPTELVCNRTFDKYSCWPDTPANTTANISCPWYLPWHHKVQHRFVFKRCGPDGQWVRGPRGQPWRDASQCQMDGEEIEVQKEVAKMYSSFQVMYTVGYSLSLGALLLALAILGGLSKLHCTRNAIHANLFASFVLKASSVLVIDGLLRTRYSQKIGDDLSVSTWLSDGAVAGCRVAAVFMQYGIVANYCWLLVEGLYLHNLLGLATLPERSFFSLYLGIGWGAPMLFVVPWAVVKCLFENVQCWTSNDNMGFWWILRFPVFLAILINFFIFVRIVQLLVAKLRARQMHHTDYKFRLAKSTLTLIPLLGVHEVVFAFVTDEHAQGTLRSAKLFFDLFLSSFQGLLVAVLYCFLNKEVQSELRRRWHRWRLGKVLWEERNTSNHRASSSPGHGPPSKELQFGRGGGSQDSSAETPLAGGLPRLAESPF

SMILES: CC(C)C[C@H](NC(=O)[C@H](CC(=O)O)NC(=O)[C@H](CC(C)C)NC(=O)[C@H](Cc1ccc(O)cc1)NC(=O)[C@H](CCCCN)NC(=O)[C@H](CO)NC(=O)[C@@H](NC(=O)[C@H](CC(=O)O)NC(=O)[C@H](CO)NC(=O)[C@@H](NC(=O)[C@H](Cc1ccccc1)NC(=O)[C@@H](NC(=O)CNC(=O)[C@H](CCC(N)=O)NC(=O)[C@H](CO)NC(=O)[C@@H](N)Cc1c[nH]cn1)[C@@H](C)O)[C@@H](C)O)C(C)C)C(=O)N[C@@H](CCCNC(=N)N)C(=O)N[C@@H](CCCNC(=N)N)C(=O)N[C@@H](C)C(=O)N[C@@H](CCC(N)=O)C(=O)N[C@@H](CCC(=O)O)C(=O)N[C@@H](Cc1ccccc1)C(=O)N[C@H](C(=O)N[C@@H](CCCCNC(=O)CC[C@H](NC(=O)COCCOCCNC(=O)COCCOCCNC(=O)CC[C@H](NC(=O)CC[C@H](NC(=O)CCCCCCCCCCCCCCCCC(=O)O)C(=O)O)C(=O)O)C(=O)O)C(=O)N[C@@H](Cc1c[nH]c2ccccc12)C(=O)N[C@@H](CC(C)C)C(=O)N[C@@H](CC(C)C)C(=O)N[C@@H](CO)C(=O)N[C@H](C(=O)O)[C@@H](C)O)C(C)C [Example 63, N^ε24-[(4S)-4-carboxy-4-[[2-[2-[2-[[2-[2-[2-[[(4S)-4-carboxy-4-[[(4S)-4-carboxy-4-(17-carboxyheptadecanoylamino)butanoyl]amino]butanoyl]amino]ethoxy]ethoxy]acetyl]amino]ethoxy]ethoxy]acetyl]amino]butanoyl]-[Val10,Leu16,Glu21,Lys24,Leu27,Ser28]-Glucagon] (H-HSQGTFTSDVSKYLDLRRAQEFVK([γGlu-AEEA-AEEA-γGlu-γGlu-C18 diacid])WLLST-OH)
- half-life [1]: 63.7 h
- EC50 [2]: 0.088 nM
- Chemical stability [Purity loss/14 days 37 C.] [3]: 4.1%

SMILES: CC(C)C[C@H](NC(=O)[C@H](Cc1c[nH]c2ccccc12)NC(=O)[C@H](CCCCNC(=O)CC[C@H](NC(=O)CC[C@H](NC(=O)COCCOCCNC(=O)COCCOCCNC(=O)CC[C@H](NC(=O)CCCCCCCCCCCCCCCCC(=O)O)C(=O)O)C(=O)O)C(=O)O)NC(=O)[C@@H](NC(=O)[C@H](Cc1ccccc1)NC(=O)[C@H](CCC(=O)O)NC(=O)[C@H](CCC(N)=O)NC(=O)[C@H](C)NC(=O)[C@H](CCCNC(=N)N)NC(=O)[C@H](CCCNC(=N)N)NC(=O)[C@@H](NC(=O)[C@H](CC(=O)O)NC(=O)[C@H](CC(C)C)NC(=O)[C@H](Cc1ccc(O)cc1)NC(=O)[C@H](CCCCN)NC(=O)[C@H](CO)NC(=O)[C@@H](NC(=O)[C@H](CC(=O)O)NC(=O)[C@H](CO)NC(=O)[C@@H](NC(=O)[C@H](Cc1ccccc1)NC(=O)[C@@H](NC(=O)CNC(=O)[C@H](CCC(N)=O)NC(=O)[C@H](CO)NC(=O)[C@@H](N)Cc1c[nH]cn1)[C@@H](C)O)[C@@H](C)O)C(C)C)[C@@H](C)O)C(C)C)C(=O)N[C@@H](CC(C)C)C(=O)N[C@@H](CO)C(=O)N[C@H](C(=O)O)[C@@H](C)O [Example 38, N^ε24-[(4S)-4-carboxy-4-[[(4S)-4-carboxy-4-[[2-[2-[2-[[2-[2-[2-[[(4S)-4-carboxy-4-(17-carboxyheptadecanoylamino)butanoyl]amino]ethoxy]ethoxy]acetyl]amino]ethoxy]ethoxy]acetyl]amino]butanoyl]amino]butanoyl]-[Val10,Thr16,Glu21,Lys24,Leu27,Ser28]-Glucagon] (H-HSQGTFTSDVSKYLDTRRAQEFVK([γGlu-γGlu-AEEA-AEEA-γGlu-C18 diacid])WLLST-OH)
- iv PK minipig [T½] [1]: 83.0 h
- Chemical stability [Purity loss/14 days 37 C.] [3]: 4.2%

SMILES: CC(C)C[C@H](NC(=O)[C@H](CC(=O)O)NC(=O)[C@H](CC(C)C)NC(=O)[C@H](Cc1ccc(O)cc1)NC(=O)[C@H](CCCNC(=N)N)NC(=O)[C@H](CO)NC(=O)[C@H](Cc1ccc(O)cc1)NC(=O)[C@H](CC(=O)O)NC(=O)[C@H](CO)NC(=O)[C@@H](NC(=O)[C@H](Cc1ccccc1)NC(=O)[C@@H](NC(=O)CNC(=O)[C@H](CCC(N)=O)NC(=O)[C@H](CO)NC(=O)[C@@H](N)Cc1c[nH]cn1)[C@@H](C)O)[C@@H](C)O)C(=O)N[C@@H](CCCNC(=N)N)C(=O)N[C@@H](CCCNC(=N)N)C(=O)N[C@@H](C)C(=O)N[C@@H](CCC(N)=O)C(=O)N[C@@H](CC(=O)O)C(=O)N[C@@H](Cc1ccccc1)C(=O)N[C@H](C(=O)N[C@@H](CCCCNC(=O)CC[C@H](NC(=O)CC[C@H](NC(=O)COCCOCCNC(=O)COCCOCCNC(=O)CC[C@H](NC(=O)CCCCCCCCCCCCCCCCC(=O)O)C(=O)O)C(=O)O)C(=O)O)C(=O)N[C@@H](Cc1c[nH]c2ccccc12)C(=O)N[C@@H](CC(C)C)C(=O)N[C@@H](CC(C)C)C(=O)N[C@@H](CO)C(=O)N[C@H](C(=O)O)[C@@H](C)O)C(C)C [Example 15, N^ε24-[(4S)-4-carboxy-4-[[(4S)-4-carboxy-4-[[2-[2-[2-[[2-[2-[2-[[(4S)-4-carboxy-4-(17-carboxyheptadecanoylamino)butanoyl]amino]ethoxy]ethoxy]acetyl]amino]ethoxy]ethoxy]acetyl]amino]butanoyl]amino]butanoyl]-[Arg^12,Leu^16,Lys^24,Leu^27,Ser^28]-Glucagon] (H-HSQGTFTSDYSRYLDLRRAQDFVK([γGlu-γGlu-AEEA-AEEA-γGlu-C18 diacid])WLLST-OH)
- half-life [1]: 77.4 h
- EC50 [2]: 0.255 nM
- Chemical stability [Purity loss/14 days 37 C.] [3]: 5.3%

SMILES: CC(C)C[C@H](NC(=O)[C@H](CC(=O)O)NC(=O)[C@H](CC(C)C)NC(=O)[C@H](Cc1ccc(O)cc1)NC(=O)[C@H](CCCCN)NC(=O)[C@H](CO)NC(=O)[C@H](Cc1ccc(O)cc1)NC(=O)[C@H](CC(=O)O)NC(=O)[C@H](CO)NC(=O)[C@@H](NC(=O)[C@H](Cc1ccccc1)NC(=O)[C@@H](NC(=O)CNC(=O)[C@H](CCC(N)=O)NC(=O)[C@H](CO)NC(=O)[C@@H](N)Cc1c[nH]cn1)[C@@H](C)O)[C@@H](C)O)C(=O)N[C@@H](CCCNC(=N)N)C(=O)N[C@@H](CCCNC(=N)N)C(=O)N[C@@H](C)C(=O)N[C@@H](CCC(N)=O)C(=O)N[C@@H](CC(=O)O)C(=O)N[C@@H](Cc1ccccc1)C(=O)N[C@H](C(=O)N[C@@H](CCCCNC(=O)CC[C@H](NC(=O)CC[C@H](NC(=O)CC[C@H](NC(=O)CC[C@H](NC(=O)CCCCCCCCCCCCCCCCC(=O)O)C(=O)O)C(=O)O)C(=O)O)C(=O)O)C(=O)N[C@@H](Cc1c[nH]c2ccccc12)C(=O)N[C@@H](CC(C)C)C(=O)N[C@@H](CC(C)C)C(=O)N[C@@H](CO)C(=O)N[C@H](C(=O)O)[C@@H](C)O)C(C)C [Example 80, N^ε24-[(4S)-4-carboxy-4-[[(4S)-4-carboxy-4-[[(4S)-4-carboxy-4-[[(4S)-4-carboxy-4-(17-carboxyheptadecanoylamino)butanoyl]amino]butanoyl]amino]butanoyl]amino]butanoyl]-[Leu16,Lys24,Leu27,Ser28]-Glucagon]
- half-life [1]: 60.9 h
- EC50 [2]: 0.126 nM
- Chemical stability [Purity loss/14 days 37 C.] [3]: 4.5%
